pKi: −log10 of the molar value.
Experiments:
[1] = tested on: Oryctolagus cuniculus; experiment: In vivo activity in normotensive rabbits (23.5+/-2.6 mmHg) for the intraocular pressure (IOP) lowering 90 min after topical administration with one drop of Carbonic anhydrase inhibitor at a pH 7.4; format: functional, Eye
[2] = molecular target: Carbonic anhydrase 4 (Homo sapiens, UniProt P22748)
[3] = tested on: Oryctolagus cuniculus; experiment: In vivo activity in normotensive rabbits (23.5+/-2.6 mmHg) for the intraocular pressure (IOP) lowering 30 min after topical administration with one drop of Carbonic anhydrase inhibitor at a pH 7.4; format: functional, Eye
[4] = tested on: Oryctolagus cuniculus; experiment: In vivo activity in normotensive rabbits (23.5+/-2.6 mmHg) for the intraocular pressure (IOP) lowering 60 min after topical administration with one drop of Carbonic anhydrase inhibitor at a pH 7.4; format: functional, Eye
[5] = molecular target: Carbonic anhydrase 1 (Homo sapiens, UniProt P00915)
[6] = not given; remark: listed apart in the source

Carbonic anhydrase 4, sequence (P22748 whole entry): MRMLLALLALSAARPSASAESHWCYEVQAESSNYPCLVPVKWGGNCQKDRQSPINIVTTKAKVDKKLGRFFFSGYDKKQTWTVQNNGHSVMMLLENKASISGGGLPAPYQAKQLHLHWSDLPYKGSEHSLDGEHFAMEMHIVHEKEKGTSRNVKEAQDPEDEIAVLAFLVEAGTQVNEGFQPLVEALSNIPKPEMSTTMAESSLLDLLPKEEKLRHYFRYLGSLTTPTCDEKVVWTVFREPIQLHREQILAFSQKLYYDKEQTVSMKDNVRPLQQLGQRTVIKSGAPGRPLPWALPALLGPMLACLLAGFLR
Carbonic anhydrase 1, sequence (P00915 whole entry): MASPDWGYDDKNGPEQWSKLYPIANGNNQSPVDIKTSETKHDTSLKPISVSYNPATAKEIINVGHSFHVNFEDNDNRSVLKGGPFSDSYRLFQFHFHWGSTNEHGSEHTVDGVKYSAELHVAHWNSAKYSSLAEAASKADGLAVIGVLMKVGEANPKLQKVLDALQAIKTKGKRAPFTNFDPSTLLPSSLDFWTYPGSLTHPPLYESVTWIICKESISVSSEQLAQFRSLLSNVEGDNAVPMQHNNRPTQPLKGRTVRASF

NS(=O)(=O)c1nnc(NC(=O)CN(CCN(CCN(CC(=O)O)CC(=O)O)CC(=O)O)CC(=O)O)s1
Change in IOP [1]: 4.5 mmHg
Kin: 4.3 h⁻¹
pKi [2]: 7.55
Change in IOP [3]: 3.1 mmHg
Change in IOP [4]: 6.8 mmHg
pKi [5]: 7.26
Kin [6]: 8.1 h⁻¹

Reference: ChEMBL document CHEMBL1134204, “Carbonic anhydrase inhibitors: synthesis of sulfonamides incorporating dtpa tails and of their zinc complexes with powerful topical antiglaucoma properties” (Bioorg Med Chem Lett, 2001)
